# In patent US11672810B2, “Therapeutics and methods for predicting and overcoming endocrine resistance in breast cancer” (LUNELLA BIOTECH, INC., priority 2019, dated 2023):
# Assays:
# [1] = system: MCF7-fibroblasts co-cultures; details: MCF7-fibroblast co-cultures; Tamoxifen, Fulvestrant; cited from earlier work
# [2] = system: MCF7-GFP cells; assay: Drug treatment of fluorescently-labeled MCF7-fibroblast co-cultures vs mono-cultures (GFP fluorescence, plate-reader); format: cell-based, human; details: 72 hours; for Sensitivity of MCF7-GFP cells in co-culture with fibroblasts relative to mono-cultures: at 500 μM drug, GFP fluorescence, hTERT-BJ1-RFP fibroblast co-culture vs MCF7-GFP mono-culture
# Text: To directly test this hypothesis, a new assay system may be used to monitor the sensitivity of cancer cells to drug treatment, in the presence or absence of fibroblasts. For this purpose, hTERT-BJ1-fibroblasts expressing RFP (red fluorescent protein) and MCF7 cells expressing GFP (green fluorescent protein) were generated. Representative images of these mono-cultures are shown in FIGS. 14A (hTERT-BJ1-RFP) and 14B (MCF7-GFP). The hTERT-BJ1-fibroblasts expressing RFP and MCF7 cells expressing GFP were generated by lentiviral transduction. RFP, red fluorescent protein; GFP, green fluorescent protein.
# Validation via drug treatment of fluorescently-labeled MCF7-fibroblast co-cultures: hTERT-BJ1-RFP cells and MCF7-GFP cells were first generated by stable transduction with lenti-viral vectors. Then, these cells were plated into clear flat bottom 96-well black microplates (Corning; CLS3603). Mono-cultures were generated by plating either hTERT-BJ1-RFP (8,000 cells/well) or MCF7-GFP cells (8,000 cells/well). In parallel, co-cultures were generated by co-plating hTERT-BJ1-RFP (6,000 cells/well) with MCF7-GFP (2,000 cells/well). The next day, the plates were treated with either Doxycycline or Azithromycin (or vehicle controls) and were incubated for 72 hours at 37° C. The cell culture plates were then read with a plate-reader at 545/590 nm (for RFP) and at 490/510 nm (for GFP). Background readings were subtracted from the fluorescent signal and data were then normalized to controls.
SMILES,Effect on resistance of co-cultures to apoptosis induced by hormonal therapies [1],Sensitivity of MCF7-GFP cells in co-culture with fibroblasts relative to mono-cultures [2] [fold],Concentration at which increased sensitivity of MCF7-GFP cells in co-culture was first observed ([2]; not observed at 50 μM) [µM]
CN(C)C(=N)N=C(N)N [Metformin],reversed,–,–
CC[C@H]1OC(=O)[C@H](C)[C@@H](O[C@H]2C[C@@](C)(OC)[C@@H](O)[C@H](C)O2)[C@H](C)[C@@H](O[C@@H]2O[C@H](C)C[C@H](N(C)C)[C@H]2O)[C@](C)(O)C[C@@H](C)CN(C)[C@H](C)[C@@H](O)[C@]1(C)O [Azithromycin],–,~8,–
C[C@H]1c2cccc(O)c2C(=O)C2=C(O)[C@]3(O)C(=O)C(C(N)=O)=C(O)[C@@H](N(C)C)[C@@H]3[C@@H](O)[C@@H]21 [Doxycycline],–,~5,100
